The values below come from patent US9216179B2, “Treatment of gout and hyperuricemia” (ARDEA BIOSCIENCES, INC., priority 2010, dated 2015).

The test system of data set [1] is patients with gout. The experiment in a line: Phase II gout dose response study, Lesinurad versus placebo (incidence of gout flares). The data set is classed as in vivo, human. As to the method: Purpose: To compare the proportion of subjects whose serum urate (sUA) level is <6.0 mg/dL after 28 days of dosing by treatment group.
Official Title: Randomized, Double-Blind, Multicenter, Placebo-Controlled, Safety and Efficacy Study of Lesinurad Versus Placebo in the Treatment of Hyperuricemia in Patients With Gout
Experimental Dosage Form: 200 mg capsule of Lesinurad, with appropriate pharmaceutically acceptable excipients
Primary Outcome Measures: Compare the proportion of subjects whose serum urate (sUA) level is <6.0 mg/dL after 28 days of dosing by treatment group.
Secondary Outcome Measures: • Evaluate the proportion of subjects with sUA levels <6.0 mg/dL at each weekly study visit. • Evaluate absolute and percent reduction from baseline in sUA levels at each weekly study visit. • Evaluate the percent change in 24-hr urine urate level (excretion) from baseline to Day 28. • Evaluate the incidence of gout flares. • Evaluate the safety and tolerability of Lesinurad in subjects with gout.
Inclusion Criteria: • Male or post-menopausal or surgically sterile female. • Hyperuricemic (i.e., screening sUA ≧8 mg/dL). • Meets criteria for the diagnosis of gout as per the American Rheumatism Association (ARA) Criteria for the Classification of Acute Arthritis of Primary Gout (see Appendix B). • Willing and able to give informed consent and adhere to visit/protocol schedules (informed consent must be given before the first study procedure is performed).
Results: Incidence of gout flares are presented in Table 2 below indicating the majority of flares occurred in the first week when patients were receiving 200 mg QD (6/10 total flares on drug). Few additional flares occurred as dose increased, even with greater decrease in sUA. Duration of flares is shorter at higher doses, the opposite of what would be expected with greater reduction in sUA.

For data set [2], the system named is Patients. The experiment in a line: Example 4 A: allopurinol 300 mg QD for 1 week followed by compound of Formula I, serum uric acid. The data set is classed as in vivo, human. As to the method: A: Patients received allopurinol 300 mg QD for 1 week followed by a compound of Formula I. A compound of Formula I (200 mg) reduced serum uric acid levels 9% beyond the reduction observed for allopurinol alone. Titration up to 400 mg of a compound of Formula I provided further reduction of serum uric acid levels by 6%. The combination of a compound of Formula I (400 mg) and allopurinol provided 100% response (i.e., sUA <6 mg/dL) and an 80% sUA reduction below 5 mg/dL. These responses are illustrated in FIG. 6.

In data set [3] the test system is gout patients with sUA greater than 8 mg/dL. Kind of data set: Example 6: open-label clinical pharmacology study, combination with febuxostat. As to conditions: for increases in serum creatinine (Grade): human, in vivo. As to the method: Also provided herein in certain embodiments is an open-label, clinical pharmacology study including 2 cohorts of gout patients with sUA greater than 8 mg/dL on no urate-lowering therapy. In some embodiments, patients received colchicine beginning one week prior to baseline and continuing for 5 weeks for flare prophylaxis. In other embodiments, the first cohort of patients in the study consisted of gout patients with a median baseline sUA of 9.2 mg/dL who were administered 40 mg febuxostat for the first week, 40 mg febuxostat in combination with 400 mg of a compound of formula I for the second week, and then 40 mg febuxostat in combination with 600 mg of a compound of formula I for the third week. […] In some embodiments, less than 40 mg, greater than 40 mg, less than 80 mg, greater than 80 mg, or any suitable amount of febuxostat was administered.
This 21-patient, open-label, clinical pharmacology study included 2 cohorts of gout patients with sUA greater than 8 mg/dL on no urate-lowering therapy. All patients received colchicine beginning one week prior to baseline and continuing for 5 weeks for flare prophylaxis.

Data set [4] has the same test system. The experiment in a line: Example 7: open-label clinical pharmacology study, combination with allopurinol. The data set is classed as in vivo, human. As to the method:
This 20-patient, open-label clinical pharmacology study included 2 cohorts of gout patients with sUA greater than 8 mg/dL on no urate-lowering therapy who began colchicine dosing one week prior to baseline and continued for 5 weeks. […] Elevations in CK and rhabdomyolysis are known side effects of colchicine.

The subject of data set [5] is gout patients with elevated uric acid levels. To be noted: for serious adverse events or deaths: Phase 2b study, 28 days.
Description: In some embodiments, for patients randomized to receive 400 mg a compound of formula I and 600 mg of a compound of formula I, a daily dose of compound of formula I was escalated weekly in increments of 200 mg/day.
Data set [6] deals with Patients. To be noted: Allopurinol Alone. As to the method: B: Patients received allopurinol alone for one week. For the second week, Panel 1 received a compound of Formula I (400 mg) and Panel 2 received a compound of Formula I (600 mg) in combination with allopurinol 300 mg.
For data set [7], the system named is gout patients. As to conditions: controlled trials; cited from earlier work.
Data set [8] has as its system individuals treated with the drug. To be noted: in vivo; cited from earlier work.
For data set [9], the system named is individuals treated with probenecid. As to conditions: in vivo; cited from earlier work.
Data set [10] concerns IL-1. Kind of data set: IL-1 release/production after stimulation (FIG. 1, FIG. 3). As to conditions: FIG. 3.
The test system of data set [11] is TNF-α. The experiment in a line: TNF-α production (FIG. 2). To be noted: FIG. 2, 6 hour time point.
The mark [12] stands for this setting: Cohort 1, allopurinol 300 mg alone.
[13] abbreviates: Cohort 2, allopurinol 300 mg alone.
Where [14] appears, read: Placebo qd + allopurinol, sUA <6 mg/dL after 4 weeks.
Where [15] appears, read: Cohort 1, febuxostat 40 mg alone.
[16] abbreviates: Cohort 2, febuxostat 80 mg alone.

Take `O=C(O)CSc1nnc(Br)n1-c1ccc(C2CC2)c2ccccc12` [Formula I, 2-(5-bromo-4-(4-cyclopropylnaphthalen-1-yl)-4H-1,2,4-triazol-3-ylthio)acetic acid]: the “% of patients with Flares by Dose at Time of Flare” value is 6% (6/96) in data set [1] (200 mg at time of flare), 2% (1/65) in data set [1] (400 mg at time of flare) and 9% (3/32) in data set [1] (600 mg at time of flare). For the same molecule, the “Mean Duration of Flares (by Dose at Time of Flare)” value in data set [1] (200 mg at time of flare) is 4 days; in data set [1] (400 mg at time of flare), 2 days; in [1] (600 mg at time of flare), 1.7 days. In addition, the “Mean Duration of Flares” value was 4 days in [1] (Randomized Dose Group 200 mg), 3.8 days in [1] (Randomized Dose Group 400 mg) and 1.5 days in data set [1] (Randomized Dose Group 600 mg). Further, the “% Patients with Flares” value was 6% in data set [1] (Randomized Dose Group 200 mg qd for 28 days); 12% in data set [1] (Randomized Dose Group 400 mg (200 mg 7 days, 400 mg 21 days)); 13% in data set [1] (Randomized Dose Group 600 mg (200 mg 7 days, 400 mg 7 days, 600 mg 14 days)). Moreover, in data set [2] (Formula I 200 mg after allopurinol 300 mg QD for 1 week), the “reduction of serum uric acid levels beyond the reduction observed for allopurinol alone” value was 9%. Also, the “further reduction of serum uric acid levels” value in data set [2] (titration up to 400 mg) turned out to be 6%. For the same molecule, the “additional sUA reduction compared to febuxostat alone” value is 39% in data set [3] (addition of 600 mg to 40 mg febuxostat) and 51% in data set [3] (addition of 600 mg to 80 mg febuxostat). For the same molecule, in data set [3], the “increases in serum creatinine (Grade)” value is listed as “no Grade 2 or higher increases”. Further, the “Percent patients <5 mg/dL” value in data set [4] (Cohort 1, 400 mg alone) was found to be 0%; in data set [4] (Cohort 2, 600 mg alone) it was 33%. In addition, the “Percent sUA change at trough (median, from baseline)” value (from here on “Percent sUA change at trough”) in [4] (Cohort 1, 400 mg alone) was −28%; in data set [4] (Cohort 2, 600 mg alone) it was −39%. The “Percent sUA change intraday (median, from baseline)” value (“Percent sUA change intraday” below) in data set [4] (Cohort 1, 400 mg alone) is reported as −44%; in data set [4] (Cohort 2, 600 mg alone), −54%. Besides, the “Response rate (<6 mg/dL)” value in data set [4] (Cohort 1, 400 mg alone) turned out to be 20%; in [4] (Cohort 2, 600 mg alone, listed as 2-(5-bromo-4-(4-cyclopropylnaphthalen-1-yl)-4H-1,2,4-triazol-3-ylthio)acetate) it was 67%. Also, in [4] (human, in vivo), the “serious adverse events or discontinuations considered possibly related” value was “no serious adverse events or discontinuations”. Further, the “serious adverse events or deaths” value in [5] is reported as “no serious adverse events or deaths”.

For the molecule `Oc1ncnc2[nH]ncc12` [allopurinol], in [6], the “% Patients <4 mg/dL” value worked out at 0%, the “% Patients <5 mg/dL” value is listed as 9%, the “Response: % Patients <6 mg/dL” value is listed as 63% and the “sUA Mean % Reduction” value was 32%. Moreover, the “patients achieving target sUA levels below 6 mg/dL” value in data set [4] (300 mg allopurinol alone) came to 20%. For the same molecule, the “Response rate (<6 mg/dL)” value in data set [4] (Cohort 1 (median baseline 9.8 mg/dL), allopurinol 300 mg alone) amounted to 10%. In addition, in data set [4] (setting [12]), the “Percent patients <5 mg/dL” value was 5%; the “Percent sUA change at trough” value was −31%; the “Percent sUA change intraday” value is given as −38%. Also, the “Response rate (<6 mg/dL)” value in data set [4] (Cohort 2 (median baseline 9.1 mg/dL), allopurinol 300 mg alone) is on record as 30%. Further, in [4] (setting [13]), the “Percent patients <5 mg/dL” value worked out at 5%; the “Percent sUA change at trough” value is listed as −27%; the “Percent sUA change intraday” value is −35%. The “serious adverse events or deaths” value in [5] was “fatal myocardial infarction”. Moreover, the “Mean Change in Serum Urate at Week 4 vs. Baseline on Allopurinol Alone” value in data set [5] (Placebo qd + allopurinol) is on record as “+3%”. Moreover, in [5] (setting [14]), the “Response Rate (ITT Analysis)” value came out at 25% and the “Response Rate (LOCF Analysis)” value was determined as 29%. Moreover, the “patients who discontinued treatment due to an adverse event” value in data set [5] (human, in vivo) is reported as “three”. In addition, the “gout patients responding adequately (sUA less than 6 mg/dL)” value in [7] is given as 30-40%. For the same molecule, the “incidence of side effects, of all individuals treated” value in [8] is 20%.

As for `COc1cc2c(c(OC)c1OC)-c1ccc(OC)c(=O)cc1[C@@H](NC(C)=O)CC2` [colchicine], the “increases in serum creatinine (Grade)” value in data set [3] is given as “one Grade 2 serum creatinine increase”.

Consider `Cc1nc(-c2ccc(OCC(C)C)c(C#N)c2)sc1C(=O)O` [febuxostat], for which the “Response rate (<6 mg/dL)” value in data set [3] (Cohort 1 (median baseline 9.2 mg/dL), febuxostat 40 mg alone) is 67%; in data set [3] (Cohort 1 (median baseline 9.2 mg/dL), febuxostat 40 mg alone, listed as Febuxostat), 67%; in data set [3] (Cohort 2 (median baseline […]), febuxostat 80 mg alone), 56%; in [3] (Cohort 2 (median baseline […]), febuxostat 80 mg alone, listed as Febuxostat), 56%. In addition, the “Percent patients <4 mg/dL” value in data set [3] (setting [15]) and in data set [3] (setting [16]) was 0% each time. Moreover, the “Percent sUA change at trough” value in data set [3] (setting [15]) is given as −35%; in data set [3] (setting [16]) it was −47%. Further, the “Percent sUA change intraday” value in data set [3] (setting [15]) is reported as −44%; in data set [3] (setting [16]), −52%. Also, the “patients achieving sUA levels below 4 mg/dL or below 3 mg/dL” value in [3] (either dose of febuxostat alone) is “No patient”.

`CCCN(CCC)S(=O)(=O)c1ccc(C(=O)O)cc1` [probenecid]: in [9], the individuals developing intolerance entry is listed as “one-third” and the “individuals failing to achieve reduction of serum uric acid levels <6 mg/dL” value is on record as 25-50%.

With rilonacept, the IL-1 production result in [10] is “does not reduce”. The “production of TNF-α” value in [11] is given as “inhibits”.
